Measurements as given in patent US20040241754A1, “Modulating neuronal plasticity” (The Salk Institute for Biological Studies, priority 2003, published 2004).
“Also recorded” adds a separate entry of the source. Ends that are not written are not given here.

Columns and labels:
[1] = test system: mossy fiber synapses of hippocampal CA3 pyramidal neurons; assay: Mossy fiber LTP, whole-cell patch clamp in hippocampal slices; assay type: cell-based, mice; conditions: for LTP (potentiation of the EPSC after tetanic stimulation): peptide 50 μM in patch electrode (postsynaptic), 25 to 30 minutes after tetanic stimulation; for LTP PPR (paired pulse ratio after LTP induction) / control PPR (paired pulse ratio before LTP induction): 40 ms interval
Description: The role of the GluR2 subunit in LTP at mossy fiber terminals was evaluated in whole cell patch clamp experiments using hippocampal CA3 pyramidal neurons. Briefly, transverse hippocampal slices (350 μm) were made from P12-18 mice (strain 129SvEv) as previously described (Contractor et al., Neuron 29, 209-16. (2001)). Slices were transferred to a recording chamber, and whole-cell patch clamp recordings made from visually identified pyramidal cells in the CA3 region of the hippocampus. The recording electrode (i.e., patch electrode) is filled with an “internal” solution described below. A seal between the glass of the electrode and the membrane of the cell is made. The seal is then “broken through” by pushing the electrode through the membrane to gain low resistance access to the cell interior and enable voltage clamping of the cell membrane. This also allows dialysis of the cell with test reagents such as peptides and antibodies. A stimulating electrode is attached to a current source and allows current to stimulate action potentials while a reference electrode is placed in the recording bath. The composition of the internal solution was: 95 mM CsF, 25 mM CsCl, 10 mM Cs-HEPES, 10 mM Cs-EGTA, 2 mM NaCl, 2 mM Mg-ATP, 10 mM QX-314, 5 mM TEA-Cl, 5 mM 4-AP, pH adjusted to 7.3 with CsOH.
Peptides were added directly to the internal solution on the day of the experiment from frozen stocks in protease inhibitors made up in phosphate buffered saline (PBS). To avoid leakage of peptides or antibodies into the extracellular space, pipette tips were filled with normal internal solution and then the pipette was backfilled with peptide/antibody containing internal fluid. The final concentration of peptides was 50 μM in all experiments. The final concentration of protease inhibitors were: bestatin 2 μg/ml, leupeptin 25 ng/ml, pepstatin 35 ng/ml, aprotinin 100 ng/ml.
In control experiments where peptides were not included, internal solutions were made up in exactly the same way with protease inhibitors in PBS but lacking any added peptide. Antibodies were made up in PBS stock and added directly to the internal solution at a final concentration of 20 μg/ml. The pH and osmolarity of all internal solutions were checked before use. Series resistances (Rs) were generally <10M and were continuously monitored throughout the duration of the experiment. […] Experiments using mutant mice were performed with heterozygous breedings blind to the genotype of the animal.
Mossy fiber EPSCs were evoked with a monopolar glass electrode positioned in the stratum lucidum. EPSCs were evaluated using a 40 ms interval between recordings. All recordings were made in the continuous presence of bicuculline (10 μM), picrotoxin (50 μM) and the NMDA receptor antagonist D-AP5 [D(-)-2-Amino-5-phosphonopentanoic acid; 50 μM]. The group II mGluR agonist, LCCG-1 (10 μM), which selectively depresses mossy fiber transmission, was applied at the end of each experiment. LTP was induced by tetanic stimulation comprising three 1 s stimulations (100 Hz) with a 10 s interval. Data are presented as mean±SEM. Parameters were compared using the Student's unpaired t-test where not specified, and the K-S test, p<0.05 was considered significant.
Cumulative probability is determined by ranking the EPSC data set from the highest to the lowest value from 20 to 30 minutes post tetanization. Each point is graphed with its corresponding percentile. […] The lowest LTP value was about 40% signified by the lowest point on the 1 st graph (open circles) and the largest LTP was about 160%.

GRIP PDZ4-6 = biological target: T1, GRIP PDZ4-6 (Rattus norvegicus, UniProt P97879); assay: Competitive binding of 35S-EphB2 to His-GRIP-PDZ4-6
T1 construct: corresponding to GRIP1 (amino acid 448-792); made in house; host or cells: E. coli BL21
T1 sequence (P97879 448-792): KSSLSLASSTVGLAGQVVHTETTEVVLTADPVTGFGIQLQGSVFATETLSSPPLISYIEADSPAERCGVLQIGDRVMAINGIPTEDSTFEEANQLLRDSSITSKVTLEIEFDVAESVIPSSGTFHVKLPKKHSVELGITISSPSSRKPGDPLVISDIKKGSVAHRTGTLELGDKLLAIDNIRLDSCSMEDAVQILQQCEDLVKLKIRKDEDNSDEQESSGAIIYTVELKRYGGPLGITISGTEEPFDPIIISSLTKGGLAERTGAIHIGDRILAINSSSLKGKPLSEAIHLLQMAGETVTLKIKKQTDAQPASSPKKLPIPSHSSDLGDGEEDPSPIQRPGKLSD
Description: A competitive binding assay was prepared to determine if the LTP inhibitory effects of the GluR2ct peptide were mediated through disruption of binding between Eph receptors and PDZ domain 6 of GRIP (Torres et al., Neuron 21, 1453-63. (1998)) as opposed to disruption of binding between the GluR2 subunit and the GluR2-binding PDZ 4 and 5 domains of GRIP (Dong et al., Nature 386, 279-84. (1997)). For this purpose, a binding assay was established between GRIP PDZ domain fragments (His-GRIP-PDZ4-6) and an EphB2 carboxy terminal fusion protein labeled with ^35S-methionine (^35S-EphB2).
Briefly, the carboxy terminal region of EphB2 corresponding to mouse EphB2 receptor (amino acid 930-993) was generated by PCR from mouse brain library and subcloned into pGEX2TK (Pharmacia). The GRIP(PDZ4-6) construct, corresponding to GRIP1 (amino acid 448-792) was obtained by PCR from an adult rat hippocampal library and subcloned into pRSET vector. E coli (strain BL21) were transformed with His-GRIP(PDZ4-6) and GST-EphB2 and protein production induced with IPTG. GST-EphB2 protein was purified on glutathionine beads and ^35S-EphB2 cleaved from GST with thrombin (1 U/μg). GRIP(PDZ4-6) protein was purified on Ni-NTA agarose, and eluted with imadazole. ^35S-EphB2 (50 nM) was incubated with (15 μg) of His-GRIP(PDZ4-6) protein in PBS buffer with protease inhibitors for 2 hrs at 22° C. in the absence or presence of peptides. ^35S-EphB2 binding to His-GRIP(PDZ4-6) was determined after a 45 min incubation with Ni-NTA agarose and vacuum filtration onto Whatman GFB filter circles (pretreated with 3% BSA). Filters were washed with ice-cold PBS buffer, allowed to equilibrate overnight in ECOLUME scintillation cocktail (ICN pharmaceuticals, Irvine Calif.), and specific counts measured in a scintillation counter. Non-specific binding was defined as the residual binding measured in the absence of His-GRIP(PDZ4-6).

[2] = test system: mossy fiber synapses of hippocampal CA3 pyramidal neurons; assay: Forskolin-mediated potentiation of mossy fiber EPSCs; assay type: cell-based, mice; conditions: EphB2 peptide in recording electrode
[3] = biological target: postsynaptic EphB receptors; assay: cell-based or functional assay
His-GRIP(PDZ4-6) = biological target: T2, His-GRIP(PDZ4-6) (rat, UniProt P97879 448-792); assay: displacement of ^35S-EphB2 (50 nM) from His-GRIP-PDZ4-6, Hill fit
T2 construct: range 448-792; not shown: His tag and vector residues from pRSET
T2 sequence (looked up): T1 sequence (P97879 448-792)

EphA8 = biological target: T3, EphA8 (Mus musculus, UniProt O09127); conditions: read-out: Kd for binding to EphA8; cited from earlier work
T3 sequence (O09127 27-1004): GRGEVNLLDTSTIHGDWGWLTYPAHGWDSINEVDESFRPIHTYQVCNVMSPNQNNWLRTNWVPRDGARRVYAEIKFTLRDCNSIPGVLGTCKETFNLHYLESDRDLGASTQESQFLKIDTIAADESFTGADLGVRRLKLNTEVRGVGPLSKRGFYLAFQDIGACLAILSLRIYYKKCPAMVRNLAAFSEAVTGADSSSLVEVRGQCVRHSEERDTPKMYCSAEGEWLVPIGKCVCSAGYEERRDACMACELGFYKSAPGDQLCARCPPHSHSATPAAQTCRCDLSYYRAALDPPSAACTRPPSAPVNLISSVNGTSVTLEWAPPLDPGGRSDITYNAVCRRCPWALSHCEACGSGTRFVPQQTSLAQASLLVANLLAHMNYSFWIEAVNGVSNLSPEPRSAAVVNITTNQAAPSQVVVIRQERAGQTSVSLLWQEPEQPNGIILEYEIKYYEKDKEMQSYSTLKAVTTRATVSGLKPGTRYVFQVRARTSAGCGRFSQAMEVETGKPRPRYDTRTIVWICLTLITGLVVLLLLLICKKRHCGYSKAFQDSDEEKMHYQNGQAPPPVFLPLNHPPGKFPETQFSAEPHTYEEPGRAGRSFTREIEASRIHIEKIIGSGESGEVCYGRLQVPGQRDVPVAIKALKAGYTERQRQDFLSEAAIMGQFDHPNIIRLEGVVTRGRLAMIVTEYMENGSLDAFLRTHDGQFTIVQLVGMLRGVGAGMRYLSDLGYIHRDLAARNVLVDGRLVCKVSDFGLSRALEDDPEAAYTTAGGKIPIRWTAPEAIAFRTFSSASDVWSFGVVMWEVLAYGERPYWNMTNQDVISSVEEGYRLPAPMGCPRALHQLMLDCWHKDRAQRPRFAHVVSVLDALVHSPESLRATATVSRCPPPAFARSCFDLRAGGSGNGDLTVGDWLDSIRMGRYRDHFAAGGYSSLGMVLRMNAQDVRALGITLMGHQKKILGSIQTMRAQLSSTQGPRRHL

EphA3 = conditions: read-out: Kd for binding to EphA3; cited from earlier work
[4] = peptide 50 μM in patch electrode
[5] = peptide in patch electrode (postsynaptic)
[6] = peptide in patch electrode, 20 to 30 minutes post tetanization

In the case of NVIYVKSEIG [R2ctSC, reference compound], the “LTP (potentiation of the EPSC after tetanic stimulation)” value [1] is reported as 200±11%, the “LTP PPR (paired pulse ratio after LTP induction)” value [1, 4] is reported as 2.4±0.10 and the “control PPR (paired pulse ratio before LTP induction)” value [1, 4] is reported as 3.1±0.19. The “effect on basal synaptic transmission / basal EPSC amplitudes” value ([1]; peptide in patch electrode) was “stable”, the “effect on tetanus induced LTP” value [1, 5] was “little effect on induction of LTP” and the “effect on tetanus induced LTP” value ([1]; peptide in patch electrode (postsynaptic), listed as GluR2ctSC) was “do not inhibit LTP”. For the same molecule, the “displacement of labeled EphB2 from GRIP PDZ4-6” value (GRIP PDZ4-6; concentrations of up to 10 μM peptide, listed as GluR2ctSC) was “unable to displace binding; also recorded: do not inhibit binding of EphB2 to GRIP”.

In the case of “QMNQIQSVEV [EphB2 peptide, Gln-Met-Asn-Gln-Ile-Gln-Ser-Val-Glu-Val]”, the “LTP (potentiation of the EPSC after tetanic stimulation)” value [1] is reported as 125±15%, the “LTP PPR (paired pulse ratio after LTP induction)” value [1, 4] is reported as 2.5±0.27 and the “control PPR (paired pulse ratio before LTP induction)” value [1, 4] is reported as 2.5±0.22. For the same molecule, the “PTP (post-tetanic potentiation)” value ([1]; peptide 50 μM in patch electrode, immediately following tetanic stimulation) was 500±76%, the “effect on PTP” value [1, 5] was “significantly impaired; also recorded: significantly depressed” and the “effect on tetanus induced LTP” value [1, 5] was “significantly impaired; also recorded: inhibit mossy fiber hippocampal CA3 neuronal LTP; also recorded: significantly depressed”. For the same molecule, the “largest LTP of single recordings (cumulative probability, FIG. 5)” value [1, 6] was “about 160%”, the “lowest LTP value of single recordings (cumulative probability, FIG. 5)” value [1, 6] was “about 40%” and the Ki (GRIP PDZ4-6; 35S-EphB2 50 nM, fitted to the Hill equation, read-out: Ki, displacement of 35S-EphB2 binding to His-GRIP-PDZ 4-6) was 43 nM. For the same molecule, the “forskolin-mediated potentiation with peptide in the recording electrode” value [2] was 209±20%.

B1: ephrin-B1-Fc fusion protein (Fc fusion, mouse, not shown: a dimerising Fc or GST)
chain (part 1 of 2): ATPLAKNLEPVSWSSLNPKFLSGKGLVIYPKIGDKLDIICPRAEAGRPYEYYKLYLVRPEQAAACSTVLDPNVLVTCNKPHQEIRFTIKFQEFSPNYMGLEFKKYHDYYITSTSNGSLEGLENREGGVCRTRTMKIVMKVGQDPNAVTPEQLTTSRPSKESDNTVKTATQAPGRGSQGDSDGKHETVNQEEKSGPGAGGGGSGDSIEGRMD
chain (part 2 of 2): HHHHH
Work on B1 yielded an LTP after tetanus in the presence of ephrinB1-Fc (5 µg/ml) [3] of 139%, a forskolin potentiation of mossy fiber EPSCs after pre-application of ephrin-B1-Fc [3] of 219% and a post-tetanic potentiation [3] of 430%.

In the case of QMNQIQSVEV (also called EphB2 peptide) [EphB2 carboxy terminal peptide], the Ki (His-GRIP(PDZ4-6)) is reported as 43 nM.

B2: ephrin-A3: a 238 amino acid polypeptide; ephrin ligand (protein, UniProt P52797 1-238, looked up)
chain: MAAAPLLLLLLLVPVPLLPLLAQGPGGALGNRHAVYWNSSNQHLRREGYTVQVNVNDYLDIYCPHYNSSGVGPGAGPGPGGGAEQYVLYMVSRNGYRTCNASQGFKRWECNRPHAPHSPIKFSEKFQRYSAFSLGYEFHAGHEYYYISTPTHNLHWKCLRMKVFVCCASTSHSGEKPVPTLPQFTMGPNVKINVLEDFEGENPQVPKLEKSISGTSPKREHLPLAVGIAFFLMTFLAS
modifications: full-length
notes: a 238 amino acid polypeptide; ephrin ligand
In the case of B2, the Kd (EphA8) is given as 1.1 nM and the Kd (EphA3) is given as 5 nM.

B3: ephrin-A5: a 28 kDa, 228 amino acid glycoprotein; ephrin ligand (protein, UniProt P52803 1-228, looked up)
chain: MLHVEMLTLVFLVLWMCVFSQDPGSKAVADRYAVYWNSSNPRFQRGDYHIDVCINDYLDVFCPHYEDSVPEDKTERYVLYMVNFDGYSACDHTSKGFKRWECNRPHSPNGPLKFSEKFQLFTPFSLGFEFRPGREYFYISSAIPDNGRRSCLKLKVFVRPTNSCMKTIGVHDRVFDVNDKVENSLEPADDTVHESAEPSRGENAAQTPRIPSRLLAILLFLLAMLLTL
modifications: full-length
notes: a 28 kDa, 228 amino acid glycoprotein; ephrin ligand
For B3, the Kd (EphA8) is given as 0.5 nM.
